Data from ChEMBL document CHEMBL5584201, “Amphiphilic tribasic galactosamines potentiate rifampicin in Gram-negative bacteria at low Mg++/Ca++concentrations” (Bioorg Med Chem Lett, 2024).
≈ marks a conversion by molar mass, not a printed value.

What was measured:
[1] = system: Acinetobacter baumannii; test: Potentiation of rifampicin-induced antibacterial activity against Acinetobacter baumannii ATCC 17978 assessed as fold change in rifampicin MIC in low salt containing media by Mueller-Hinton broth based assay; type: functional
[2] = system: Escherichia coli; test: Antibacterial activity against Escherichia coli ATCC 25922 in low salt containing media by Mueller-Hinton broth based assay; type: functional
[3] = system: Escherichia coli; test: Potentiation of rifampicin-induced antibacterial activity against Escherichia coli ATCC 25922 assessed as rifampicin MIC in low salt containing media by Mueller-Hinton broth based assay; type: functional
[4] = system: Acinetobacter baumannii; test: Antibacterial activity against Acinetobacter baumannii ATCC 17978 in low salt containing media by Mueller-Hinton broth based assay; type: functional
[5] = system: Pseudomonas aeruginosa; test: Potentiation of rifampicin-induced antibacterial activity against Pseudomonas aeruginosa PAO1 assessed as fold change in rifampicin MIC in low salt containing media by Mueller-Hinton broth based assay; type: functional
[6] = system: Pseudomonas aeruginosa; test: Potentiation of rifampicin-induced antibacterial activity against Pseudomonas aeruginosa PAO1 assessed as rifampicin MIC in low salt containing media by Mueller-Hinton broth based assay; type: functional
[7] = system: Acinetobacter baumannii; test: Potentiation of rifampicin-induced antibacterial activity against Acinetobacter baumannii ATCC 17978 assessed as rifampicin MIC in low salt containing media by Mueller-Hinton broth based assay; type: functional
[8] = system: Pseudomonas aeruginosa; test: Antibacterial activity against Pseudomonas aeruginosa PAO1 in low salt containing media by Mueller-Hinton broth based assay; type: functional
[9] = system: Escherichia coli; test: Potentiation of rifampicin-induced antibacterial activity against Escherichia coli ATCC 25922 assessed as fold change in rifampicin MIC in low salt containing media by Mueller-Hinton broth based assay; type: functional
[10] = system: Acinetobacter baumannii; test: Potentiation of rifampicin-induced antibacterial activity against Acinetobacter baumannii 92247 assessed as rifampicin MIC at 16 microg/ml in high concentration of Ca++ and Mg++ containing media by Mueller-Hinton broth based assay; type: functional; details: dose 16 µg/ml
[11] = system: Acinetobacter baumannii; test: Antibacterial activity against Acinetobacter baumannii ATCC 17978 in high concentration of Ca++ and Mg++ containing media by Mueller-Hinton broth based assay; type: functional
[12] = system: Escherichia coli; test: Potentiation of rifampicin-induced antibacterial activity against Escherichia coli ATCC 25922 assessed as fold change in rifampicin MIC at 2 to 8 microg/ml in high concentration of Ca++ and Mg++ containing media by Mueller-Hinton broth based assay; type: functional; details: dose 2-8 µg/ml
[13] = system: Acinetobacter baumannii; test: Potentiation of rifampicin-induced antibacterial activity against Acinetobacter baumannii 92247 assessed as fold change in rifampicin MIC at 16 microg/ml in high concentration of Ca++ and Mg++ containing media by Mueller-Hinton broth based assay; type: functional; details: dose 16 µg/ml
[14] = system: Escherichia coli; test: Potentiation of rifampicin-induced antibacterial activity against Escherichia coli ATCC 25922 assessed as rifampicin MIC at 2 to 8 microg/ml in high concentration of Ca++ and Mg++ containing media by Mueller-Hinton broth based assay; type: functional; details: dose 2-8 µg/ml
[15] = system: Escherichia coli; test: Antibacterial activity against Escherichia coli […] in high concentration of Ca++ and Mg++ containing media by Mueller-Hinton broth based assay; type: functional
[16] = system: Acinetobacter baumannii; test: Antibacterial activity against Acinetobacter baumannii 92247 in high concentration of Ca++ and Mg++ containing media by Mueller-Hinton broth based assay; type: functional
[17] = Cytotoxicity against HEK293 cells assessed as cell viability at 9 uM relative to control; type: toxicity, cell-based; details: human, read-out: Activity
[18] = system: Acinetobacter baumannii; test: Potentiation of rifampicin-induced antibacterial activity against Acinetobacter baumannii 92247 assessed as fold change in rifampicin MIC at 2 to 8 microg/ml in high concentration of Ca++ and Mg++ containing media by Mueller-Hinton broth based assay; type: functional; details: dose 2-8 µg/ml
[19] = system: Escherichia coli; test: Antibacterial activity against Escherichia coli ATCC 25922 in high concentration of Ca++ and Mg++ containing media by Mueller-Hinton broth based assay; type: functional
[20] = system: Escherichia coli; test: Potentiation of rifampicin-induced antibacterial activity against Escherichia coli […] assessed as rifampicin MIC at 16 microg/ml in high concentration of Ca++ and Mg++ containing media by Mueller-Hinton broth based assay; type: functional; details: dose 16 µg/ml
[21] = system: Escherichia coli; test: Potentiation of rifampicin-induced antibacterial activity against Escherichia coli ATCC 25922 assessed as rifampicin MIC at 16 microg/ml in high concentration of Ca++ and Mg++ containing media by Mueller-Hinton broth based assay; type: functional; details: dose 16 µg/ml
[22] = system: Escherichia coli; test: Potentiation of rifampicin-induced antibacterial activity against Escherichia coli […] assessed as rifampicin MIC at 2 to 8 microg/ml in high concentration of Ca++ and Mg++ containing media by Mueller-Hinton broth based assay; type: functional; details: dose 2-8 µg/ml
[23] = system: Acinetobacter baumannii; test: Potentiation of rifampicin-induced antibacterial activity against Acinetobacter baumannii ATCC 17978 assessed as fold change in rifampicin MIC at 16 microg/ml in high concentration of Ca++ and Mg++ containing media by Mueller-Hinton broth based assay; type: functional; details: dose 16 µg/ml
[24] = system: Acinetobacter baumannii; test: Potentiation of rifampicin-induced antibacterial activity against Acinetobacter baumannii 92247 assessed as rifampicin MIC at 2 to 8 microg/ml in high concentration of Ca++ and Mg++ containing media by Mueller-Hinton broth based assay; type: functional; details: dose 2-8 µg/ml
[25] = system: Escherichia coli; test: Potentiation of rifampicin-induced antibacterial activity against Escherichia coli ATCC 25922 assessed as fold change in rifampicin MIC at 16 microg/ml in high concentration of Ca++ and Mg++ containing media by Mueller-Hinton broth based assay; type: functional; details: dose 16 µg/ml
[26] = system: Escherichia coli; test: Potentiation of rifampicin-induced antibacterial activity against Escherichia coli […] assessed as fold change in rifampicin MIC at 2 to 8 microg/ml in high concentration of Ca++ and Mg++ containing media by Mueller-Hinton broth based assay; type: functional; details: dose 2-8 µg/ml
[27] = system: Acinetobacter baumannii; test: Potentiation of rifampicin-induced antibacterial activity against Acinetobacter baumannii ATCC 17978 assessed as rifampicin MIC at 16 microg/ml in high concentration of Ca++ and Mg++ containing media by Mueller-Hinton broth based assay; type: functional; details: dose 16 µg/ml
[28] = system: Acinetobacter baumannii; test: Potentiation of rifampicin-induced antibacterial activity against Acinetobacter baumannii ATCC 17978 assessed as rifampicin MIC at 2 to 8 microg/ml in high concentration of Ca++ and Mg++ containing media by Mueller-Hinton broth based assay; type: functional; details: dose 2-8 µg/ml
[29] = Cytotoxicity against human HepG2 cells assessed as cell viability at 9 uM relative to control; type: toxicity, cell-based; details: read-out: Activity
[30] = system: Escherichia coli; test: Potentiation of rifampicin-induced antibacterial activity against Escherichia coli […] assessed as fold change in rifampicin MIC at 16 microg/ml in high concentration of Ca++ and Mg++ containing media by Mueller-Hinton broth based assay; type: functional; details: dose 16 µg/ml
[31] = system: Acinetobacter baumannii; test: Potentiation of rifampicin-induced antibacterial activity against Acinetobacter baumannii ATCC 17978 assessed as fold change in rifampicin MIC at 2 to 8 microg/ml in high concentration of Ca++ and Mg++ containing media by Mueller-Hinton broth based assay; type: functional; details: dose 2-8 µg/ml

## CCCCCCO[C@@H]1O[C@H](CN)[C@H](N)[C@H](OCc2ccc3ccccc3c2)[C@H]1N
[1]
  fold change (FC): 32
[2]
  MIC: 64 µg/mL
[3]
  MIC: 16 µg/mL
[4]
  MIC: 128 µg/mL
[5]
  fold change (FC): 1
[6]
  MIC: 16 µg/mL
[7]
  MIC: 16 µg/mL
[8]
  MIC: > 128 µg/mL
[9]
  fold change (FC): 32

## CCCCCCCCCCCCO[C@@H]1O[C@H](CN)[C@H](N)[C@H](OCc2ccc3ccccc3c2)[C@H]1N
[1]
  fold change (FC): 8
[2]
  MIC: 4 µg/mL
[3]
  MIC: 0.5 µg/mL
[4]
  MIC: 4 µg/mL
[5]
  fold change (FC): 1
[6]
  MIC: 2 µg/mL
[7]
  MIC: 1 µg/mL
[8]
  MIC: 8 µg/mL
[9]
  fold change (FC): 1

## NC[C@H]1O[C@@H](OCCCc2ccccc2)[C@H](N)[C@@H](OCc2ccc3ccccc3c2)[C@H]1N
[1]
  fold change (FC): 32
[2]
  MIC: 64 µg/mL
[3]
  MIC: 16 µg/mL
[4]
  MIC: 128 µg/mL
[5]
  fold change (FC): 2
[6]
  MIC: 16 µg/mL
[7]
  MIC: 16 µg/mL
[8]
  MIC: > 128 µg/mL
[9]
  fold change (FC): 32

## CCCCCCCCO[C@H]1[C@@H](N)[C@@H](CN=[N+]=[N-])O[C@H](OCc2ccc3ccccc3c2)[C@@H]1N
[10]
  MIC: 16 µg/mL
[11]
  MIC: > 128 µg/mL
[1]
  fold change (FC): >=256
[2]
  MIC: 8 µg/mL
[12]
  fold change (FC): 1
[13]
  fold change (FC): 64
[14]
  MIC: 2 µg/mL
[15]
  MIC: 128 µg/mL (≈ 281 µM)
[16]
  MIC: 128 µg/mL (≈ 281 µM)
[3]
  MIC: 2 µg/mL
[17]
  viability at 9 µM: 31.7%
[4]
  MIC: 16 µg/mL
[18]
  fold change (FC): 4
[19]
  MIC: 128 µg/mL (≈ 281 µM)
[20]
  MIC: 16 µg/mL
[21]
  MIC: 16 µg/mL
[5]
  fold change (FC): 8
[22]
  MIC: 2 µg/mL
[23]
  fold change (FC): 4
[6]
  MIC: 8 µg/mL
[24]
  MIC: 4 µg/mL
[25]
  fold change (FC): 16
[26]
  fold change (FC): 1
[27]
  MIC: 16 µg/mL
[7]
  MIC: 4 µg/mL
[8]
  MIC: 32 µg/mL
[28]
  MIC: 4 µg/mL
[9]
  fold change (FC): 64
[29]
  viability at 9 µM: 46%
[30]
  fold change (FC): 64
[31]
  fold change (FC): 2

## CCCCCCCCO[C@@H]1O[C@H](CN)[C@H](N)[C@H](OCc2ccccc2)[C@H]1N
[1]
  fold change (FC): 16
[2]
  MIC: 64 µg/mL
[3]
  MIC: 16 µg/mL
[4]
  MIC: > 128 µg/mL
[5]
  fold change (FC): 1
[6]
  MIC: 16 µg/mL
[7]
  MIC: 16 µg/mL
[8]
  MIC: > 128 µg/mL
[9]
  fold change (FC): 16

## CCCCCCCCO[C@@H]1O[C@H](CO)[C@H](N)[C@H](OCc2ccc3ccccc3c2)[C@H]1N
[1]
  fold change (FC): 2
[2]
  MIC: 32 µg/mL
[3]
  MIC: 8 µg/mL
[4]
  MIC: 32 µg/mL
[5]
  fold change (FC): 1
[6]
  MIC: 16 µg/mL
[7]
  MIC: 8 µg/mL
[8]
  MIC: > 128 µg/mL
[9]
  fold change (FC): 2

## CCCCCCCCO[C@@H]1O[C@H](CN)[C@H](N)[C@H](OCc2ccc3cccnc3c2)[C@H]1N
[1]
  fold change (FC): 64
[2]
  MIC: 64 µg/mL
[3]
  MIC: 8 µg/mL
[4]
  MIC: 128 µg/mL
[5]
  fold change (FC): 2
[6]
  MIC: 8 µg/mL
[7]
  MIC: 8 µg/mL
[8]
  MIC: > 128 µg/mL
[9]
  fold change (FC): 32

## CCCCCCCCO[C@H]1[C@@H](N)[C@@H](CN=[N+]=[N-])O[C@@H](OCc2ccc3ccccc3c2)[C@@H]1N
[1]
  fold change (FC): 128
[2]
  MIC: 8 µg/mL
[3]
  MIC: 1 µg/mL
[4]
  MIC: 16 µg/mL
[5]
  fold change (FC): 2
[6]
  MIC: 8 µg/mL
[7]
  MIC: 4 µg/mL
[8]
  MIC: 32 µg/mL
[9]
  fold change (FC): 8
